This is an account of results in patent US20230129258A1, “HETEROTANDEM BICYCLIC PEPTIDE COMPLEXES” (BicycleTx Limited, priority 2019, published 2023).

Data set [1] can be described thus: Pharmacokinetics in SD rats. It is filed as in vivo. The conditions noted are these: for half-life: iv. The method, boiled down:
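Male SD rats received the heterotandem Bicycle complex IV bolus or 15-min IV infusion in 25 mM histidine HCl, 10% sucrose pH 7. Serial K2-EDTA plasma analysed by LC-MS/MS (Orbitrap, positive mode); parameters from non-compartmental analysis.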

The nature of data set [2]: Pharmacokinetics in CD1 mice. It is filed as in vivo, CD-1 mice. On the procedure: Serial bleeding (about 80 μL blood/time point) was performed via submandibular or saphenous vein at each time point. All blood samples were immediately transferred into prechilled microcentrifuge tubes containing 2 μL K2-EDTA (0.5M) as anti-coagulant and placed on wet ice. Blood samples were immediately processed for plasma by centrifugation at approximately 4° C., 3000 g. The precipitant including internal standard was immediately added into the plasma, mixed well and centrifuged at 12,000 rpm, 4° C. for 10 minutes. The supernatant was transferred into pre-labeled polypropylene microcentrifuge tubes, and then quick-frozen over dry ice. The samples were stored at […] or below as needed until analysis. 7.5 μL of the supernatant samples were directly injected for LC-MS/MS analysis using an Orbitrap Q Exactive in positive ion mode to determine the concentrations of analyte. Plasma concentration versus time data were analyzed by non-compartmental approaches using the Phoenix WinNonlin 6.3 software program. C0, CI, Vdss, T½, AUC(0-last), AUC(0-inf), MRT(0-last), MRT(0-inf) and graphs of plasma concentration versus time profile were reported.

For another data set, the target named is CD137 (Homo sapiens, UniProt Q07011). As to the kind of experiment: SPR (Biacore) binding to immobilized human CD137. More on the design: purchased R&D systems. The conditions noted are these: for off rate (koff) from immobilized CD137: avidity from two CD137 binding bicycles; for affinity to immobilized CD137 (human), in words: reported KD may be an overestimation. As for the experimental part: Biacore experiments were performed to determine ka (M^−1s^−1), kd (s^−1), KD (nM) values of heterotandem peptides binding to human CD137 protein. […] The protein was desalted to remove uncoupled biotin using spin columns into PBS.
For analysis of peptide binding, a Biacore T200 or a Biacore 3000 instrument was used with a XanTec CMD500D chip. Streptavidin was immobilized on the chip using standard amine-coupling chemistry at 25° C. with HBS-N (10 mM HEPES, 0.15 M NaCl, pH 7.4) as the running buffer. Briefly, the carboxymethyl dextran surface was activated with a 7 min injection of a 1:1 ratio of 0.4 M 1-ethyl-3-(3-dimethylaminopropyl) carbodiimide hydrochloride (EDC)/0.1 M N-hydroxy succinimide (NHS) at a flow rate of 10 μl/min. For capture of streptavidin, the protein was diluted to 0.2 mg/ml in 10 mM sodium acetate (pH 4.5) and captured by injecting 120 μl of onto the activated chip surface. Residual activated groups were blocked with a 7 min injection of 1 M ethanolamine (pH 8.5) and biotinylated CD137 captured to a level of 270-1500 RU. Buffer was changed to PBS/0.05% Tween 20 and a dilution series of the peptides was prepared in this buffer with a final DMSO concentration of 0.5%. The top peptide concentration was 500 nM with 6 further 2-fold or 3-fold dilutions. The SPR analysis was run at 25° C. at a flow rate of 90 μl/min with 60 seconds association and 900 seconds dissociation. After each cycle a regeneration step (10 μl of 10 mM glycine pH 2) was employed. Data were corrected for DMSO excluded volume effects as needed. All data were double-referenced for blank injections and reference surface using standard processing procedures and data processing and kinetic fitting were performed using Scrubber software, version 2.0c (BioLogic Software). Data were fitted using simple 1:1 binding model allowing for mass transport effects where appropriate.

Entries after “also recorded” stand apart in the source; their conditions may differ. Starred links: 1 amine or outer side, 2 acyl side, 3 side chain; linkers in the order of their positions; H or OH if unused. Positions of bridges follow the written chain, without caps; N, C: chain ends. Non-standard residues stand in square brackets, D forms with d. Chains are numbered I, II in the order given. X1 = O=C(CCOCCOCCOCCN(CCOCCOCCOCCn1cc(CCC(=O)[*:2])nn1)CCOCCOCCOCCn1cc(CCC(=O)[*:3])nn1)[*:1]; TATA = O=C(CC[*:1])N1CN(C(=O)CC[*:2])CN(C(=O)CC[*:3])C1; d1Nal = N[C@H](Cc1cccc2ccccc12)C(=O)O; Hyp = O=C(O)[C@@H]1C[C@@H](O)CN1; hArg = N=C(N)NCCCC[C@H](N)C(=O)O; tBuAla = CC(C)(C)C[C@H](N)C(=O)O; Nle = CCCC[C@H](N)C(=O)O

Sequence of CD137 (Q07011 24-255): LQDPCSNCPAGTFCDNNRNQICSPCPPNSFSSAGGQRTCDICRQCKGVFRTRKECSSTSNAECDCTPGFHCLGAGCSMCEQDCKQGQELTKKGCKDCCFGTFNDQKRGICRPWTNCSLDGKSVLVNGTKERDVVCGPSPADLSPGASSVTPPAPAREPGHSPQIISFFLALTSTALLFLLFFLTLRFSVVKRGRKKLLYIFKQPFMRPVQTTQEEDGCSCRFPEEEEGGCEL

As for `CCCC[C@@H]1NC(=O)[C@H](Cc2ccc(O)cc2)NC(=O)[C@@H]2CCCN2C(=O)[C@H](CC(=O)O)NC(=O)[C@H](C)NC(=O)[C@H](Cc2ccccc2)NC(=O)[C@@H]2CSCCC(=O)N3CN(CN(C3)C(=O)CCSC[C@@H](C(=O)N[C@@H](C)C(N)=O)NC1=O)C(=O)CCSC[C@H](NC(C)=O)C(=O)N[C@@H](CC(C)(C)C)C(=O)N1CCC[C@H]1C(=O)N[C@@H](CCC(=O)O)C(=O)N[C@H](CCCCNC(=O)CCc1cn(CCOCCOCCOCCN(CCOCCOCCOCCC(=O)N[C@H]3CSCCC(=O)N4CN5CN(C4)C(=O)CCSC[C@H](NC(=O)[C@@H](CC(=O)O)NC(=O)[C@H](Cc4cccc6ccccc46)NC(=O)[C@@H]4CCCN4C3=O)C(=O)N[C@@H](CCSC)C(=O)N[C@@H](CCCCNC(=N)N)C(=O)N[C@@H](CC(=O)O)C(=O)N[C@@H](Cc3c[nH]c4ccccc34)C(=O)N[C@@H](CO)C(=O)N[C@@H]([C@@H](C)O)C(=O)N3CCC[C@H]3C(=O)N3C[C@H](O)C[C@H]3C(=O)N[C@@H](Cc3c[nH]c4ccccc34)C(=O)N[C@H](C(N)=O)CSCCC5=O)CCOCCOCCOCCn3cc(CCC(=O)NCCCC[C@H]4NC(=O)[C@H](CCC(=O)O)NC(=O)[C@@H]5CCCN5C(=O)[C@H](CC(C)(C)C)NC(=O)[C@@H](NC(C)=O)CSCCC(=O)N5CN6CN(C5)C(=O)CCSC[C@H](NC(=O)[C@H](Cc5ccc(O)cc5)NC(=O)[C@@H]5CCCN5C4=O)C(=O)N[C@@H](Cc4ccccc4)C(=O)N[C@@H](C)C(=O)N[C@@H](CC(=O)O)C(=O)N4CCC[C@H]4C(=O)N[C@@H](Cc4ccc(O)cc4)C(=O)N[C@@H](CCCC)C(=O)N[C@H](C(=O)N[C@@H](C)C(N)=O)CSCCC6=O)nn3)nn1)C(=O)N1CCC[C@H]1C(=O)N[C@@H](Cc1ccc(O)cc1)C(=O)N2` [BCY11863], in data set [1] (100 mg/kg BCY11863 IV), the “Clp” value amounted to 13 mL/min/kg. The distribution volume (Vdss) (commonly the apparent volume that relates the amount in the body to the concentration in plasma or blood) in data set [1] (100 mg/kg BCY11863 IV) stood at 2.3 L/kg. Also, in data set [1] (IV administration of BCY11863, 100 mg/kg), the “fraction metabolized to BCY15155” value is given as < 1%. For the same molecule, in data set [1] (SC dosing), the “bioavailability from SC dosing” value is given as “high”. Also, the “clearance (in words)” value in data set [1] (Table 6B) and in data set [2] (IV study) was “low clearance molecule” each time. Moreover, the “volume of distribution (in words)” value in data set [1] (Table 6B) and in data set [2] (IV study) was “volume of distribution larger than plasma volume” each time. Besides, the “conversion to BCY14602” value in data set [1] (first 24 h, IV BCY11863, 100 mg/kg) is on record as “No significant conversion”. Further, the half-life in data set [1] (male, SD, rat, plasma, 2 mg/kg, 2 mg/kg IV, n=3, read-out: terminal half life (converted)) is 4.1 h; in data set [2] (male, CD-1, mouse, plasma, 15 mg/kg, mice, after IP injection, read-out: circulating plasma half-life (converted)), 2.5 h; in data set [2] (male, mouse, plasma, CD-1 mice, 0.96 mg/kg IV Bolus, read-out: T½ (converted)), 1.7 h; in data set [2] (male, mouse, plasma, CD-1 mice, 5.6 mg/kg IV Bolus, read-out: T½ (converted)) it was 2.6 h; in data set [2] (male, mouse, plasma, CD-1 mice, 12 mg/kg IV Bolus, read-out: T½ (converted)), 2.6 h; in data set [2] (male, mouse, plasma, CD-1 mice, 15.5 mg/kg IP, read-out: T½ (converted)), 2.5 h. Also, in data set [2] (male, mouse, plasma, CD-1 mice, 32 mg/kg IV Bolus, read-out: T½ (converted)), the half-life was 2.4 h. In addition, the clearance in data set [1] (male, SD, rat, plasma, 2 mg/kg IV, n=3, read-out: clearance) was determined as 7.7 mL/min/kg; in data set [1] (male, rat, plasma, SD rats, 1.9 mg/kg IV Bolus, read-out: Clp), 7.7 mL/min/kg; in data set [1] (male, rat, plasma, SD rats, 3.2 mg/kg IV Inf (15 min), read-out: Clp), 9.3 mL/min/kg; in data set [2] (male, mouse, plasma, CD-1 mice, 0.96 mg/kg IV Bolus, read-out: Clp), 21 mL/min/kg; in data set [2] (male, mouse, plasma, CD-1 mice, 5.6 mg/kg IV Bolus, read-out: Clp), 9.7 mL/min/kg; in data set [2] (male, mouse, plasma, CD-1 mice, 12 mg/kg IV Bolus, read-out: Clp), 17 mL/min/kg. Further, the Vd in data set [1] (male, SD, rat, plasma, 2 mg/kg IV, n=3, read-out: volume of distribution at steady state (Vdss)) is 1.6 L/kg; in data set [1] (male, rat, plasma, SD rats, 1.9 mg/kg IV Bolus, read-out: Vdss) it was 1.6 L/kg; in data set [1] (male, rat, plasma, SD rats, 3.2 mg/kg IV Inf (15 min), read-out: Vdss) it was 1.3 L/kg; in data set [2] (male, mouse, plasma, CD-1 mice, 0.96 mg/kg IV Bolus, read-out: Vdss) it was 2.9 L/kg; in data set [2] (male, mouse, plasma, CD-1 mice, 5.6 mg/kg IV Bolus, read-out: Vdss), 1.6 L/kg; in data set [2] (male, mouse, plasma, CD-1 mice, 12 mg/kg IV Bolus, read-out: Vdss) it was 2.5 L/kg. The Vd in data set [2] (male, mouse, plasma, CD-1 mice, 32 mg/kg IV Bolus, read-out: Vdss) came to 2.1 L/kg. For the same molecule, the bioavailability (commonly the share of a dose that reaches the circulation, judged against a reference dose that is usually intravenous) in data set [1] (male, rat, plasma, SD rats, 6.3 mg/kg SC) was determined as 95%; in data set [2] (male, mouse, plasma, CD-1 mice, 15.5 mg/kg IP), 100%. Moreover, in data set [2] (IP dosing), the “bioavailability from IP dosing” value is listed as “high”. For the same molecule, at CD137, the “off rate (koff) from immobilized CD137” value was “extremely slow; also recorded: very slow”. In addition, on CD137, the “affinity to immobilized CD137 (human), in words” value is listed as “high affinity”.

In turn, “I: A[hArg]DC[Hyp]LVNPLCLEP[d1Nal]WTC-NH2 / II: Ac-C[tBuAla]PE[dK]PYCFADPY[Nle]CA-NH2 / III: Ac-C[tBuAla]PE[dK]PYCFADPY[Nle]CA-NH2 (linker I:4-I:11-I:18, II:1-II:8-II:15, III:1-III:8-III:15 via TATA; linker I:N-II:5-III:5 via X1) [BCY13272]” had a terminal half life in data set [1] (3.6 mg/kg IV infusion (15 min), n=3) of 2.9 h. Besides, the half-life is 2.5 h in data set [1] (male, SD, rat, plasma, 3.6 mg/kg, 3.6 mg/kg IV infusion (15 min), n=3, read-out: terminal half life (converted)); 2.5 h in data set [1] (male, SD, rat, plasma, IV Inf (15 minutes), read-out: T1/2 (converted)); 2.9 h in data set [2] (male, CD-1, mouse, plasma, 5.5 mg/kg IV, n=3, read-out: terminal plasma half life (converted)). Moreover, the clearance in data set [1] (male, SD, rat, plasma, 3.6 mg/kg IV infusion (15 min), n=3, read-out: clearance) was determined as 7.5 mL/min/kg; in data set [2] (male, CD-1, mouse, plasma, 5.5 mg/kg IV, n=3, read-out: Clearance) it was 7.5 mL/min/kg. Moreover, the Vd amounted to 1 L/kg in data set [1] (male, SD, rat, plasma, 3.6 mg/kg IV infusion (15 min), n=3, read-out: volume of distribution at steady state (Vdss)); 1 L/kg in data set [1] (male, SD, rat, plasma, IV Inf (15 minutes), read-out: Vdss); 1.1 L/kg in data set [2] (male, CD-1, mouse, plasma, 5.5 mg/kg IV, n=3, read-out: volume of distribution (Vdss)). Moreover, the “off rate (koff) from immobilized CD137” value on CD137 is reported as “very slow”. Besides, the “affinity to immobilized CD137 (human), in words” value on CD137 is on record as “high affinity”.
